# Test results from patent US7157449B2, “Medicament for the treatment of diseases caused by parasitic protozoa” (priority 2000, dated 2007).
# “Also recorded” adds a separate entry of the source.
# Tests used:
# [1] = system: T. brucei; test: Effect of drugs on trypanosome proliferation; type: cell-based; settings: for effect on trypanosome proliferation: DON 1, 5 μM, acivicin 1, 5, 25 μM, CPEC 250 μM, azaserine data not shown; for rescue of trypanosomes from the proliferation block asserted by DON: cytidine up to 5 mM or cytosine 1 mM
# Description: In A), the trypanosomes were treated with no drug (squares), 1 μM DON (triangles) or 5 μM DON (diamonds). In (B), the trypanosomes were treated with no drug (filled squares), 1 μM acivicin (triangles), 5 μM acivicin (diamonds) or 25 μM acivicin (open squares). The number of trypanosomes was counted at various time-points after the drug exposure had started. It appears that DON and acivicin were both very active.
# The trypanosomes were treated with DON for 1 h and then harvested and resuspended in drug-free medium. The number of trypanosomes was counted at various time-points after the release had started (triangles). A control experiment was performed where the trypanosomes were not exposed to DON but otherwise were treated exactly the same way as the drug-treated trypanosomes (squares). Each point is an average of two experiments with the standard deviation indicated by error bars.
# (§1) Procyclic insect forms of T. brucei brucei AnTat 1.1 were cultured in SDM-79 medium (Brun, R. and Schoenenberger, M. (1979) Acta Trop. 36, 289–292) supplemented with 10% heat-inactivated fetal bovine serum at 27° C. Culture-adapted bloodstream forms of the T. brucei brucei cell line TC221 (Hirumi, H., Hirumi, K., Doyle, J. J. and Cross, G. A. M. (1980) Parasitology 80, 371–382) were propagated in Hirumi's modified Iscove's medium-9 (Hirumi, H. and Hirumi, K. (1989) J. Parasitology 75, 985–989) supplemented with 5% fetal bovine serum at 37° C. in a humidified atmosphere containing 7% CO2. The cultured parasites were harvested in the late logarithmic growth phase.
# (§2) 6-diazo-5-oxo-L-norleucine (DON), acivicin and azaserine were bought from Sigma. They were dissolved in water and stored as 5 mM solutions at −20° C. Cyclopentenyl cytosine was a kind gift from Grant McClarty at the Dept. of Medical Microbiology, University of Manitoba, 730 William Ave, Winnipeg, Manitoba R3E OW3, Canada. It was stored as a 50 mM solution in dimethyl sulfoxide (DMSO) at 4° C. The final concentration of DMSO in the growth media of the trypanosomes never became more than 0.5% and that had no effect on the NTP pools or the proliferation of the parasites.
# DON is not stable in the bloodstream and has a half-life of only a few hours in humans (Kovach, J. S., Eagan, R. T., Pawis, G., Rubin, J., Creagan, E. T. and Moertel. C. G. (1981) Cancer Treat. Rep. 65, 1031–1036; Rahman, A., Luc, V., Smith, F. P., Vrown, J., Schein, P. S. and Woolley, P. V. (1981); and Sullivan, M. P., Nelson, J. A., Feldman, S. and Nguyen, B. V. (1988) Cancer Chemother. Pharmac. 21, 78–84). Therefore, it was tested for how long the effect of a short pulse of DON lasts on trypanosome proliferation. In FIG. 5, the trypanosomes have been treated with 5 μM DON for 1 h. After the incubation, the trypanosomes were collected by centrifugation, the pellet was washed with media not containing DON and resuspended in the same media and the trypanosomes were put back into the incubator. The amount of trypanosomes was continuously recorded during the incubation. Control trypanosomes were treated the same way except that the one-hour incubation was without DON.
# [2] = system: T. brucei; test: NTP (CTP) pools in trypanosomes after treatment with CTP synthetase inhibitors; type: cell-based; settings: for effect on the CTP pool: 1 h incubation, 25 and 100 μM DON, 100 μM acivicin, 25 μM CPEC; for size of the CTP pool after addition of cytidine or cytosine: up to 15 mM cytidine or 1 mM cytosine, harvested one hour later
# Description: Samples without drug (control), with 25 and 100 μM DON (DON25 and DON100, respectively), with 100 μM acivicin (Aci100) and with 25 μM CPEC (CPEC25) are shown. The unit of the ordinata is the same as in FIG. 1. The control is an average of two experiments while the others are single measurements.
# as §1
# 1–3×10^8 trypanosomes were collected and subsequently disintegrated by 500 μl ice-cold 0,6 M trichloroacetic acid supplemented with 15 mM MgCl2. The trichloroacetic acid was removed by two extractions with 720 μl 1,1,2-trichlorotrifluoroethan (78%)/trioctylamine (22%) and the aqueous phase was saved. ⅕ of the sample was evaporated to dryness in a Speedvac (Savant), loaded onto a 4.6×125 mm Partisphere SAX-column and run by HPLC in 0,5 M ammonium phosphate pH 3,4 containing 2,5% acetonitrile at 1.5 ml/min. The procedure is further explained in previous work by the present inventors, see Hofer, A., Ekanem, J. T. and Thelander, L. (1998) J. Biol. Chem. 273, 34098–34104. A connection of the HPLC to a Flow Scintillation Analyzer (Radiomatic 150 TR, Packard) made it possible to check the radioactivity in the chromatographic peaks. For radioactivity measurements, the whole sample was usually loaded onto the column. The nucleotides were quantified by measuring the peak heights and comparing them to a standard curve.
# as §2
# The absolute dependence on de novo synthesis for CTP production might be exploited for chemotherapy purposes since the host can be rescued by cytidine. There are two major classes of compounds that inhibit CTP synthetase, nucleoside analogues and glutamine analogues. One nucleoside analogue, cyclopentenyl cytosine (CPEC), and two glutamine analogues, 6-diazo-5-oxo-L-norleucin (DON) and acivicin, were tested and it was observed how the CTP pool changed during the one-hour incubation period (FIG. 3). […] Next, the effect of the drugs on trypanosome growth was investigated. […] As expected. CPEC (250 μM) had no effect in this experiment either (data not shown).
# [3] = system: mouse BALB/c fibroblasts; test: Proliferation of BALB/c fibroblasts with DON with or without hypoxanthine; type: cell-based
# Description: The fibroblasts were seeded at a density so low that they could not get confluent within three days. […] At this point the amount of cells was indirectly counted by a method described in the section “Material and methods” below.
# Mouse Balb/c fibroblasts were cultivated as monolayers in Dulbecco's Modified Eagles Medium (Sigma) supplemented with L-glutamine (0.584 g/l) and 10% heat-inactivated horse serum at 37° C. in a humidified atmosphere containing 7% CO2. The amount of fibroblasts on each plate was determined by a method were the cell-containing plates were washed with PBS pH 7.5, the cells disintegrated by a 10 min. incubation with 0.2 M NaOH at 50° C. and then the OD260-310 was measured (Suttle, D. P. and Stark, G. R. (1979) J. Biol. Chem. 254, 4602–4607). The cells were collected before confluence.
# The effect of DON on trypanosomes and mammalian cells was compared as follows. […] Thus, it needed to be investigated whether or not the anti-proliferation effect on mammalian cells could be abolished, while still keeping the trypanocidal activity. In mammalian cells, DON is a powerful inhibitor of de novo purine biosynthesis. In FIG. 6, two experiments are included wherein the block on de novo purine biosynthesis have been by-passed by 10 and 160 μM hypoxanthine, respectively. Hypoxanthine is a naturally occurring purine base in the bloodstream of mammals.
# [4] = system: Plasmodium falciparum; test: IC50 against parasite (Swiss Tropical Institute standard method); type: cell-based
# Description: (§3) In order to determine in what range DON is effective against Plasmodium falciparum, the cause of malaria, Swiss Tropical Institute (Socinstrasse 57, P.O. Box, CH, 4002 Basel, Switzerland) performed the present experiment according to their standard methods available as a commercial service provided under secrecy (for an exact disclosure of the method, reference is made to Swiss Tropical Institute). Further, the present experiment enables a comparison between the effect of DON on both Trypanosoma brucei rhodiense and Plasmodium falciparum.
# [5] = system: Trypanosoma brucei rhodiense; test: as above; type: cell-based
# Description: as §3
# [6] = human bloodstream; cited from earlier work
# [7] = in vivo; cited from earlier work
smiles,measurement,setting,value
"[N-]=[N+]=CC(=O)CC[C@H](N)C(=O)O [DON, 6-diazo-5-oxo-L-norleucine]",effect on trypanosome proliferation,[1],very active
same,concentration that completely blocked trypanosome proliferation,"[1]; cultured trypanosomes, 160 μM hypoxanthine in medium",1 µM
same,effect on the CTP pool,[2],selectively lowered the CTP level; also recorded: lowered the CTP pool
same,"effect on the UTP, ATP or GTP (purine NTP) levels",[2]; DON-treated T. brucei,"without affecting the UTP, ATP or GTP levels; also recorded: did not alter the purine NTP pools"
same,DON concentration needed to inhibit proliferation relative to without hypoxanthine,[3]; in the presence of 160 μM hypoxanthine,around 20 times
same,antiproliferative effect of DON,[3]; with 10 μM hypoxanthine (consumed during the experiment),still high
same,DON concentration needed for a proliferation block,[3]; with addition of hypoxanthine,more than 20 μM
same,DON concentration for maximal inhibition / total block of proliferation,"[3]; without purines (hypoxanthine) in the culture medium, 72 h",1 to 2 µM
same,IC50,[4]; KI isolate,0.52 µM
same,IC50,[4]; NF54 isolate,0.36 µM
same,IC50,[5],0.43 µM
same,half-life,[6],a few hours
Nc1cc[nH]c(=O)n1 [cytosine],rescue of trypanosomes from the proliferation block asserted by DON,[1],could not rescue
same,size of the CTP pool after addition of cytidine or cytosine,[2],no change
"Nc1ccn([C@@H]2O[C@H](CO)[C@@H](O)[C@H]2O)c(=O)n1 [Cytidine, cytidine]",rescue of trypanosomes from the proliferation block asserted by DON,[1],could not rescue
same,size of the CTP pool after addition of cytidine or cytosine,[2],no change
same,effect on the DON concentration needed for a proliferation block,[3]; cytidine added instead of hypoxanthine,had no such effect
"[N-]=[N+]=CC(=O)OC[C@H](N)C(=O)O [Azaserine, azaserine]",effect on trypanosome proliferation,[1],had no effect
"O=c1[nH]cnc2nc[nH]c12 [Hypoxanthine, hypoxanthine]",crossing of the blood-brain barrier,[7],known to cross the blood-brain barrier
N[C@H](C(=O)O)[C@@H]1CC(Cl)=NO1 [acivicin],effect on trypanosome proliferation,[1],very active
same,GTP pool reduced by,"[2]; 1 h incubation with acivicin, not shown in the figure",50%
same,effect on the CTP pool,[2],lowered the CTP pool
